US20200017496A1 (priority 2017, published 2020)
Read-outs that look alike come from different tables or passages of the source.

System: Klebsiella pneumoniae (KPN) isolates
Test: MIC of compounds alone and combined with antibacterials, broth microdilution (CLSI)
Format: cell-based
Details: for MIC ATB in combination: AF1 @ 4 μg/mL; for MIC: Klebsiella pneumoniae
Method in brief: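 Log-phase isolates at final 5·10^5 CFU/mL in cation-adjusted Mueller-Hinton broth, incubated 16-20 h at 35° C in ambient air. MIC read visually as lowest concentration preventing growth, for compound alone and for antibacterial at each compound concentration.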

## CO/N=C(\C(=O)N[C@@H]1C(=O)N2C(C(=O)O)=C(COC(N)=O)CS[C@H]12)c1ccco1 [FUR, Cefuroxime]
KPN 6299
  MIC ATB in combination: 16 µg/mL
KPN 110376
  MIC ATB in combination: 4 µg/mL
KPN 131119
  MIC ATB in combination: 8 µg/mL
KPN 140513
  MIC ATB in combination: 32 µg/mL
KPN 160143
  MIC ATB in combination: 4 µg/mL
KPN 190128
  MIC ATB in combination: 16 µg/mL
KPN 190270
  MIC ATB in combination: 16 µg/mL
KPN 190425
  MIC ATB in combination: 4 µg/mL
KPN 190551
  MIC ATB in combination: 4 µg/mL
KPN 200047
  MIC ATB in combination: 2 µg/mL
KPN 200327
  MIC ATB in combination: 2 µg/mL
KPN 260251
  MIC ATB in combination: 8 µg/mL
KPN 260252
  MIC ATB in combination: 32 µg/mL
KPN 260376
  MIC ATB in combination: 2 µg/mL
KPN 270077
  MIC ATB in combination: 16 µg/mL
KPN 700603
  MIC ATB in combination: 16 µg/mL
KPN ARA
  MIC ATB in combination: 16 µg/mL
KPN BAA-1898
  MIC ATB in combination: 4 µg/mL
KPN LIB
  MIC ATB in combination: 8 µg/mL
KPN UFR22_O
  MIC ATB in combination: 8 µg/mL
KPN UFR23
  MIC ATB in combination: 4 µg/mL
KPN UFR24
  MIC ATB in combination: 16 µg/mL
KPN UFR25
  MIC ATB in combination: 4 µg/mL
KPN UFR27
  MIC ATB in combination: 32 µg/mL
KPN UFR28
  MIC ATB in combination: 4 µg/mL
KPN UFR65
  MIC ATB in combination: 16 µg/mL
KPN UFR66
  MIC ATB in combination: 32 µg/mL
KPN UFR67
  MIC ATB in combination: 32 µg/mL
KPN UFR68
  MIC ATB in combination: 8 µg/mL
KPN UFR76
  MIC ATB in combination: >128 µg/mL
KPN UFR77
  MIC ATB in combination: 32 µg/mL
KPN UFR78
  MIC ATB in combination: >128 µg/mL
KPN UFR79
  MIC ATB in combination: 32 µg/mL
KPN UFR80
  MIC ATB in combination: 16 µg/mL
KPN UFR81
  MIC ATB in combination: 32 µg/mL
KPN UFR215
  MIC ATB in combination: 16 µg/mL
KPN UFR216
  MIC ATB in combination: 4 µg/mL
KPN UFR217
  MIC ATB in combination: 2 µg/mL
KPN UFR219
  MIC ATB in combination: 8 µg/mL
KPN UFR220
  MIC ATB in combination: 16 µg/mL
KPN UFR221
  MIC ATB in combination: 4 µg/mL
KPN UFR222
  MIC ATB in combination: 64 µg/mL
KPN UFR227O
  MIC ATB in combination: 64 µg/mL
  MIC: > 256 µg/mL
BAA1898, strain KPN BAA-1898 (TEM-1, SHV-11, SHV-12, KPC-2), ATB alone, read-out: MIC
  MIC: > 512 µg/mL
Strain KPN 6299 (TEM-1, SHV-11, OXA-163), ATB alone, read-out: MIC
  MIC: > 512 µg/mL
Strain KPN 700603 (SHV-18, OXA-2), ATB alone, read-out: MIC
  MIC: 32 µg/mL
Strain KPN LIB (SHV-11, OXA-48), ATB alone, read-out: MIC
  MIC: 16 µg/mL
Strain KPN UFR22_O (TEM-1, SHV-1, OXA-48), ATB alone, read-out: MIC
  MIC: 32 µg/mL
Strain KPN UFR23 (TEM-1, SHV-1, OXA-48), ATB alone, read-out: MIC
  MIC: 8 µg/mL
Strain KPN UFR24 (TEM-1, SHV-2, SHV-11, OXA-1, OXA-48, OXA-47), ATB alone, read-out: MIC
  MIC: 128 µg/mL
Strain KPN UFR77 (CMY-2), ATB alone, read-out: MIC
  MIC: 64 µg/mL
Strain KPN UFR80 (SHV-11, DHA-1, OXA-1), ATB alone, read-out: MIC
  MIC: 32 µg/mL

## COCC1=C(C(=O)O)N2C(=O)[C@@H](NC(=O)/C(=N\OC)c3csc(N)n3)[C@H]2SC1 [POD, Cefpodoxime]
KPN 6299
  MIC ATB in combination: <=0.25 μg/mL
KPN 110376
  MIC ATB in combination: <=0.25 μg/mL
KPN 131119
  MIC ATB in combination: <=0.25 μg/mL
KPN 140513
  MIC ATB in combination: 4 µg/mL
KPN 160143
  MIC ATB in combination: <=0.25 μg/mL
KPN 190128
  MIC ATB in combination: 0.5 µg/mL
KPN 190270
  MIC ATB in combination: 0.5 µg/mL
KPN 190425
  MIC ATB in combination: <=0.25 μg/mL
KPN 190551
  MIC ATB in combination: <=0.25 μg/mL
KPN 200047
  MIC ATB in combination: <=0.25 μg/mL
KPN 200327
  MIC ATB in combination: <=0.25 μg/mL
KPN 260251
  MIC ATB in combination: <=0.25 μg/mL
KPN 260252
  MIC ATB in combination: 4 µg/mL
KPN 260376
  MIC ATB in combination: <=0.25 μg/mL
KPN 270077
  MIC ATB in combination: 0.5 µg/mL
KPN 700603
  MIC ATB in combination: 0.5 µg/mL
KPN ARA
  MIC ATB in combination: <=0.25 μg/mL
KPN BAA-1898
  MIC ATB in combination: 0.5 µg/mL
KPN LIB
  MIC ATB in combination: <=0.25 μg/mL
KPN UFR22_O
  MIC ATB in combination: <=0.25 μg/mL
KPN UFR23
  MIC ATB in combination: <=0.25 μg/mL
KPN UFR24
  MIC ATB in combination: 1 µg/mL
KPN UFR25
  MIC ATB in combination: <=0.25 μg/mL
KPN UFR27
  MIC ATB in combination: 4 µg/mL
KPN UFR28
  MIC ATB in combination: <=0.25 μg/mL
KPN UFR65
  MIC ATB in combination: 0.5 µg/mL
KPN UFR66
  MIC ATB in combination: 2 µg/mL
KPN UFR67
  MIC ATB in combination: 4 µg/mL
KPN UFR68
  MIC ATB in combination: 1 µg/mL
KPN UFR76
  MIC ATB in combination: >128 µg/mL
KPN UFR77
  MIC ATB in combination: 4 µg/mL
KPN UFR78
  MIC ATB in combination: 128 µg/mL
KPN UFR79
  MIC ATB in combination: 4 µg/mL
KPN UFR80
  MIC ATB in combination: 0.5 µg/mL
KPN UFR81
  MIC ATB in combination: 4 µg/mL
KPN UFR215
  MIC ATB in combination: 0.5 µg/mL
KPN UFR216
  MIC ATB in combination: <=0.25 μg/mL
KPN UFR217
  MIC ATB in combination: <=0.25 μg/mL
KPN UFR219
  MIC ATB in combination: <=0.25 μg/mL
KPN UFR220
  MIC ATB in combination: 4 µg/mL
KPN UFR221
  MIC ATB in combination: 1 µg/mL
KPN UFR222
  MIC ATB in combination: 8 µg/mL
KPN UFR227O
  MIC ATB in combination: 4 µg/mL
